Data published in ChEMBL document CHEMBL3046038, “Antifeedant effects and chemical composition of essential oils from different populations of Lavandula luisieri L” (Biochem Syst Ecol, 2006).

Columns and labels:
Spodoptera littoralis [1] = test: Antifeedant activity against […] Spodoptera littoralis fed on compound treated artificial diet by choice feeding assay; format: functional, organism-based
Spodoptera littoralis [2] = test: Antifeedant activity against Spodoptera littoralis fed on compound treated artificial diet assessed as food ingested by choice feeding assay relative to control; format: functional
[3] = system: Leptinotarsa decemlineata; test: Antifeedant activity against adult Leptinotarsa decemlineata fed on compound treated potato foliage by choice feeding assay; format: functional, organism-based
Myzus persicae = test: Antifeedant activity against apterous adult Myzus persicae (green peach aphid) fed on compound treated bell pepper assessed as settling on leaf by choice feeding assay (reference value: 52 to 70%); format: functional
Spodoptera littoralis [4] = test: Antifeedant activity against Spodoptera littoralis fed on compound treated artificial diet assessed as larval weight gain by choice feeding assay relative to control; format: functional

CC12CCC(CC1)C(C)(C)O2 [EUCALYPTOL]
EC50 (Spodoptera littoralis [1]): > 50 microg/cm2 | Activity (Spodoptera littoralis [2]): 95% | EC50 [3]: > 50 microg/cm2 | Activity (Myzus persicae): 37% | Activity (Spodoptera littoralis [4]): 96%

CC12CCC(CC1=O)C2(C)C (stereo not given) [CAMPHOR]
EC50 (Spodoptera littoralis [1]): > 50 microg/cm2 | Activity (Spodoptera littoralis [2]): 83% | EC50 [3]: > 50 microg/cm2 | Activity (Myzus persicae): 40% | Activity (Spodoptera littoralis [4]): 97%

C=C1C(=O)C(C)=C(C)C1(C)C
EC50 (Spodoptera littoralis [1]): > 50 microg/cm2 | Activity (Spodoptera littoralis [2]): 88% | EC50 [3]: > 50 microg/cm2 | Activity (Myzus persicae): 48% | Activity (Spodoptera littoralis [4]): 87%

CC12CCC(C1)C(C)(C)C2=O (stereo not given) [FENCHONE]
EC50 (Spodoptera littoralis [1]): > 50 microg/cm2 | Activity (Spodoptera littoralis [2]): 91% | EC50 [3]: > 50 microg/cm2 | Activity (Myzus persicae): 30% | Activity (Spodoptera littoralis [4]): 100%
